Results taken from patent US6593342B1, “Pharmaceutical compositions comprising 2-quinolones” (Laboratoire L. Lafon, priority 1998, dated 2003).

Test system: clonogenic cells
Assay: Clonogenic test, overall statement
Assay type: cell-based
Conditions: in words
Description: 1—Interaction (Stimulation or Inhibition of Proliferation) With the Generation of Clonogenic Cells (Clonogenic Test)
The test used is that described by Hamburger et al. (Science, 1977; 197, 461-463) and Salmon et al. (New England J. Med., 298, 1321-1327). A cell is considered clonogenic if it has the capacity to proliferate and to give rise to a cell colony. “Human tumor stem cells” are the cells which are the source of the neoplastic cells which constitute a given tumor. These tumor stem cells are responsible for the relapse processes which may be observed after surgical resection of primary tumors and are also responsible for the formation of metastases. […]
The influence of the compounds of formulae (I) and (Ia) on the growth of the cell colonies obtained by culturing, for example, the mammalian tumor lines MCF7 and MXT and the colorectal line HT-29 on the semi-liquid culture medium known as “soft agar” was measured. […]
The tumor cell lines studied are maintained in culture in 25 cm^2 falcon dishes. […] The percentage of live cells is determined after staining with trypan blue. […] After fixing for 24 hours, the formalin is evaporated off and the number of stained cell colonies, thus consisting of metabolically active cells, and whose surface area is greater than 100 μm^2, is determined using an inverted microscope. […]

CCN(CC)C(=O)CCn1c(=O)c(-c2ccc(OC)cc2)cc2c(OC)cc(OC)cc21 [CRL8283, N,N-Diethyl-3-[5,7-dimethoxy-3-(4-methoxy-phenyl)-2-oxo-1,2-dihydro-1-quinolinyl]propanamide]
effect on the average number of clones of clonogenic cells relative to the reference situation: reduce

CCN(CC)C(=O)Cn1c(=O)c(-c2ccc(OC)cc2)cc2c(OC)cc(OC)cc21 [CRL8315, N,N-Diethyl-2-[5,7-dimethoxy-3-(4-methoxy-phenyl)-2-oxo-1,2-dihydro-1-quinolinyl]acetamide]
effect on the average number of clones of clonogenic cells relative to the reference situation: increase
